This test concerns the target recombinant full-length FEN-1 (Homo sapiens (Human), UniProt P39748). As to the kind of experiment: Fluorogenic biochemical (enzymatic) assay, FEN-1. The conditions noted are these: 200 nM DNA flap substrate, 50 mM Tris pH 8.0, 10 mM MgCl2, 2-4 hours at 25° C. or 37° C., read-out: SMD FEN-1 IC50. As for the experimental part: Fluorogenic biochemical assays used recombinant full-length FEN-1 or catalytic domains of Exo1, XPG or GEN1 and 200 nM of a DNA substrate (formed by annealing three oligonucleotides—quencher (5′-CACGTTGACTACCGCTCAATCCTGACGAACACATC-BHQ2), flap (5′-TAMRA-GA TGTCAAGCAGTCCTAACTTTGAGGCAGAGTCCGC) and template (5′-GC GGACTCTGCCTCAAGACGGTAGTCAACGTG-3′) (PMID: 21062821)) in 50 mM Tris pH 8.0, 10 mM MgCl2, 1 mM DTT, and 0.01% Tween-20. Inhibitors arrayed in dose response were added from DMSO stocks (using a V&P 384-pintool head) to the enzyme solution in low volume, black polystyrene 384-well plates (Corning #3677) 15 minutes prior to the addition of the DNA substrate. Reactions were allowed to proceed for 2-4 hours at 25° C. or 37° C. Fluorescence data (Excitation: 530 nm/10 nm bandwidth; Emission: 590 nm/20 nm bandwith) were measured with an Infinite M1000 plate reader (Tecan).
Sequence of recombinant full-length FEN-1 (P39748 whole entry, the tested form may be a part): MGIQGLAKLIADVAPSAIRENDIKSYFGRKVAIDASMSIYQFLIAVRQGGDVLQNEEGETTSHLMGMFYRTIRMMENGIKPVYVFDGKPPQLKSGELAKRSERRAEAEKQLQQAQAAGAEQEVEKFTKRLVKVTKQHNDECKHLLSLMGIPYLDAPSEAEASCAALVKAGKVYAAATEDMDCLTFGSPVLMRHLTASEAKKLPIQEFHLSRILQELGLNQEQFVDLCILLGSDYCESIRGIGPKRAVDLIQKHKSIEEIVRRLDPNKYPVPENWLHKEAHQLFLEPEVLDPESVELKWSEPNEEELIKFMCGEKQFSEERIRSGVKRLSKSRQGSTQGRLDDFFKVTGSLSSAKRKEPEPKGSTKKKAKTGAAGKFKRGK
A word on the IC50: it is the point on the concentration scale where inhibition reaches its midpoint. On to `O=c1[nH]c2c(-c3ccccc3)cccc2c(=O)n1O` [Compound 18], for which the IC50 was 113 nM.

With `CN(C)c1cc(N(C)C)cc(S(=O)(=O)c2cccc3c(=O)n(O)c(=O)[nH]c23)c1` [Compound 81], the concentration for half-maximal inhibition (IC50) is 18.4 nM. Regarding `O=c1[nH]c2c(S(=O)(=O)c3ccccc3)cccc2c(=O)n1O` [Compound 21], the concentration for half-maximal inhibition (IC50) came to 23.8 nM. As to `O=c1[nH]c2nc(Cc3ccccc3)ccc2c(=O)n1O` [Compound 23], the IC50 worked out at 11 nM.

`O=c1[nH]c2c(F)cccc2c(=O)n1O` [Compound 36]: the concentration for half-maximal inhibition (IC50) was 42 nM. As to `Cc1cccc(S(=O)(=O)c2cccc3c(=O)n(O)c(=O)[nH]c23)c1` [Compound 32], the IC50 turned out to be 14.5 nM.

With `O=c1[nH]c2c(S(=O)(=O)c3cccc(O)c3)cccc2c(=O)n1O` [Compound 47], the IC50 was 15.7 nM. Turning to `O=c1[nH]c2c(S(=O)(=O)c3ccc(Br)cc3)cccc2c(=O)n1O` [Compound 45], the IC50 worked out at 14 nM. To `O=c1[nH]c2c(S(=O)(=O)c3cccc(F)c3)cccc2c(=O)n1O` [Compound 69] belongs 10 nM; to `O=c1[nH]c2c(S(=O)(=O)c3ccccc3)ccc(Cl)c2c(=O)n1O` [Compound 43], 9.9 nM.

For `O=c1[nH]c2c(S(=O)(=O)c3cccc(F)c3)ccc(Cl)c2c(=O)n1O` [Compound 70], the 50% inhibitory concentration (IC50) is 9.8 nM. Under `N#Cc1cccc(S(=O)(=O)c2cccc3c(=O)n(O)c(=O)[nH]c23)c1` [Compound 56] stands 14.8 nM; under `COc1ccc(S(=O)(=O)c2cccc(C)c2)c2[nH]c(=O)n(O)c(=O)c12` [Compound 80], 9.4 nM. Under `Cc1cccc(S(=O)(=O)c2c(F)ccc3c(=O)n(O)c(=O)[nH]c23)c1` [Compound 51] stands 19.2 nM. Under `O=c1[nH]c2c(S(=O)(=O)c3ccccc3)c(F)ccc2c(=O)n1O` [Compound 68] stands 94.4 nM; under `O=c1[nH]c2c(S(=O)(=O)c3cc(Br)cc(Br)c3)cccc2c(=O)n1O` [Compound 61], 16.6 nM. Take `Cc1cccc(S(=O)(=O)c2ccc(F)c3c(=O)n(O)c(=O)[nH]c23)c1` [Compound 67]: the IC50 amounted to 17.8 nM. Take `O=c1[nH]c2c(S(=O)(=O)Cc3ccccc3)cccc2c(=O)n1O` [Compound 30]: the IC50 was determined as 129 nM. Under `Cn1c(=O)n(O)c(=O)c2cccnc21` [Compound 17] stands 3340 nM; under `Cc1cccc(S(=O)(=O)c2cc(F)cc3c(=O)n(O)c(=O)[nH]c23)c1` [Compound 53], 13.7 nM; under `Nc1cc(N)cc(S(=O)(=O)c2cccc3c(=O)n(O)c(=O)[nH]c23)c1` [Compound 74], 8.5 nM. `Cc1ccc(S(=O)(=O)c2cccc3c(=O)n(O)c(=O)[nH]c23)cc1` [Compound 31]: the 50% inhibitory concentration (IC50) was 24.2 nM. Under `O=c1[nH]c2c(S(=O)(=O)c3cc(Cl)cc(Cl)c3)cccc2c(=O)n1O` [Compound 54] stands 18.1 nM; under `O=c1[nH]c2ncccc2c(=O)n1O` [Compound 14], 106 nM; under `O=c1[nH]c2c(S(=O)(=O)c3cc(F)cc(F)c3)cccc2c(=O)n1O` [Compound 57], 12.8 nM. To `Cc1cc(F)cc(S(=O)(=O)c2ccc(Cl)c3c(=O)n(O)c(=O)[nH]c23)c1` [Compound 77] belongs 8.5 nM.

In the case of `O=c1[nH]c2nc(S(=O)(=O)c3ccccc3)ccc2c(=O)n1O` [Compound 19], the IC50 was 134 nM. In the case of `O=c1[nH]c2c(S(=O)(=O)c3cc(F)cc(F)c3)ccc(Cl)c2c(=O)n1O` [Compound 71], the half-maximal inhibitory concentration (IC50) was 6.7 nM.

As for `O=c1[nH]c2c(Cc3ccccc3)ccc(Cl)c2c(=O)n1O` [Compound 28], the concentration for half-maximal inhibition (IC50) is 77.2 nM. Under `O=c1[nH]c2c(S(=O)(=O)c3cccc(Br)c3)cccc2c(=O)n1O` [Compound 46] stands 12.9 nM; under `CN(C)c1cccc(S(=O)(=O)c2cccc3c(=O)n(O)c(=O)[nH]c23)c1` [Compound 64], 14.9 nM; under `O=c1[nH]c2ccc(F)cc2c(=O)n1O` [Compound 38], 216 nM. To `Cc1cccc(S(=O)(=O)c2c(Cl)ccc3c(=O)n(O)c(=O)[nH]c23)c1` [Compound 52] belongs 139 nM; to `Cc1cccc(S(=O)(=O)c2cc(Cl)cc3c(=O)n(O)c(=O)[nH]c23)c1` [Compound 44], 10.9 nM; to `O=c1[nH]c2c(S(=O)(=O)c3cccc(Nc4ccccn4)c3)cccc2c(=O)n1O` [Compound 62], 28.9 nM.

`O=c1[nH]c2c(Cc3ccccc3)cccc2c(=O)n1O` [Compound 24]: the half-inhibitory concentration (IC50) was determined as 53.8 nM.

In the case of `CNC(=O)Nc1cccc(S(=O)(=O)c2cccc3c(=O)n(O)c(=O)[nH]c23)c1` [Compound 59], the concentration for half-maximal inhibition (IC50) was determined as 14.1 nM. Under `O=c1[nH]c2cc(-c3ccccc3)ccc2c(=O)n1O` [Compound 15] stands 356 nM; under `O=c1[nH]c2c(S(=O)(=O)c3ccc(Cl)cc3)cccc2c(=O)n1O` [Compound 33], 26.1 nM. As to `COc1cc(OC)cc(S(=O)(=O)c2cccc3c(=O)n(O)c(=O)[nH]c23)c1` [Compound 65], the half-inhibitory concentration (IC50) came to 17 nM. To `O=c1[nH]c2cccc(Cl)c2c(=O)n1O` [Compound 11] belongs 20.8 nM; to `O=c1[nH]c2cc(S(=O)(=O)Cc3ccccc3)cnc2c(=O)n1O` [Compound 25], 1640 nM. To `COC(=O)Nc1cccc(S(=O)(=O)c2cccc3c(=O)n(O)c(=O)[nH]c23)c1` [Compound 58] belongs 12.8 nM; to `Cc1cccc(S(=O)(=O)c2ccc(Cl)c3c(=O)n(O)c(=O)[nH]c23)c1` [Compound 48, 5-chloro-3-hydroxy-8-(m-tolylsulfonyl)quinazoline-2,4(1H,3H)-dione], 9.3 nM. To `O=c1[nH]c2cccc(F)c2c(=O)n1O` [Compound 39] belongs 54.4 nM; to `CC(=O)Nc1cccc(S(=O)(=O)c2cccc3c(=O)n(O)c(=O)[nH]c23)c1` [Compound 55], 16.5 nM; to `O=c1[nH]c2c(S(=O)(=O)c3ccc4[nH]cnc4c3)cccc2c(=O)n1O` [Compound 72], 5.6 nM.

As to `O=c1[nH]c2c(S(=O)(=O)c3cccc(Nc4ncccn4)c3)cccc2c(=O)n1O` [Compound 60], the IC50 is 16 nM.

Regarding `O=c1[nH]c2c(S(=O)(=O)c3cccs3)ccc(Cl)c2c(=O)n1O` [Compound 79], the half-maximal inhibitory concentration (IC50) is 16.6 nM. Under `O=c1[nH]c2c(-c3ccccc3)ccc(Cl)c2c(=O)n1O` [Compound 26] stands 37.3 nM; under `O=c1[nH]c2cc(F)ccc2c(=O)n1O` [Compound 37], 171 nM; under `Nc1cccc(S(=O)(=O)c2cccc3c(=O)n(O)c(=O)[nH]c23)c1` [Compound 49], 35.4 nM.

Turning to `O=c1c2cccnc2n(-c2ccccc2)c(=O)n1O` [Compound 20], the IC50 worked out at 2830 nM. Under `O=c1[nH]c2ccncc2c(=O)n1O` [Compound 13] stands 1310 nM.

Consider `O=c1[nH]c2cccc(Br)c2c(=O)n1O` [Compound 35], for which the IC50 was 19.6 nM.

As for `O=c1[nH]c2cc(S(=O)(=O)Cc3ccccc3)ccc2c(=O)n1O` [Compound 29], the IC50 turned out to be 160 nM. Under `O=c1[nH]c2c(S(=O)(=O)c3cccc(C(F)(F)F)c3)cccc2c(=O)n1O` [Compound 41] stands 13.3 nM. On to `O=c1[nH]c2cc(S(=O)(=O)c3ccccc3)ccc2c(=O)n1O` [Compound 22], for which the half-inhibitory concentration (IC50) is 79.5 nM. As for `O=c1[nH]c2cc(Cc3ccccc3)ccc2c(=O)n1O` [Compound 27], the IC50 was 97.3 nM. For the compound `Cc1cc(C)cc(S(=O)(=O)c2cccc3c(=O)n(O)c(=O)[nH]c23)c1` [Compound 50], the IC50 was found to be 11.6 nM. With `O=c1[nH]c2c(S(=O)(=O)c3ccccc3)cc(F)cc2c(=O)n1O` [Compound 40], the IC50 was found to be 15.6 nM.

Regarding `O=c1[nH]c2c(S(=O)(=O)c3cc(O)cc(O)c3)cccc2c(=O)n1O` [Compound 66], the IC50 was 9.3 nM.

Take `O=c1[nH]c2ccccc2c(=O)n1O` [Compound 12]: the concentration for half-maximal inhibition (IC50) stood at 241 nM.

For the compound `COc1cccc(S(=O)(=O)c2cccc3c(=O)n(O)c(=O)[nH]c23)c1` [Compound 42], the IC50 worked out at 16.5 nM.

Take `CC(=O)Nc1cc(NC(C)=O)cc(S(=O)(=O)c2cccc3c(=O)n(O)c(=O)[nH]c23)c1` [Compound 73]: the 50% inhibitory concentration (IC50) stood at 7.6 nM.

With `O=c1[nH]c2c(S(=O)(=O)c3cccs3)cccc2c(=O)n1O` [Compound 75], the half-inhibitory concentration (IC50) was determined as 11.6 nM. As for `COc1ccc(S(=O)(=O)c2ccccc2)c2[nH]c(=O)n(O)c(=O)c12` [Compound 78], the 50% inhibitory concentration (IC50) was 6.6 nM.

As to `O=c1[nH]c2nc(-c3ccccc3)ccc2c(=O)n1O` [Compound 16], the IC50 was 392 nM. To `NC(=O)Nc1cccc(S(=O)(=O)c2cccc3c(=O)n(O)c(=O)[nH]c23)c1` [Compound 63] belongs 16.9 nM. To `O=c1[nH]c2c(S(=O)(=O)c3cccc(Cl)c3)cccc2c(=O)n1O` [Compound 34] belongs 26.4 nM.

For `Cc1cc(Cl)cc(S(=O)(=O)c2ccc(Cl)c3c(=O)n(O)c(=O)[nH]c23)c1` [Compound 76], the IC50 is 9.4 nM.

(Values after patent publication US11253521B2, “3-hydroxy-quinazoline-2,4-dione derivatives and their use as nuclease modulators” (Ludwig Institute for Cancer Research Ltd, priority 2015, dated 2022).)
